Laboratory results taken from patent US20030092684A1, “Compositions and methods for treating hemorrhagic virus infections and other disorders” (priority 1999, published 2003).
Where “and” joins values, the source holds several entries; their conditions need not be identical. Equal entries are not always repeated. Where two headings read alike, the source gives them in different places.

Tests used:
[1] = tested on: Marburg virus strain Popp; design: species or system guinea-pigs; details: guinea pig, in vivo
[2] = tested on: Lassa virus strain Josiah; design: species or system BALB/c mice; details: mouse, in vivo
Dengue virus type 2 = assay: Dengue virus infection treated with tetracycline compounds (Example 4): mortality; type: in vivo, BALB/c mice; details: 20 mg/kg orally twice per day from day -3 until day 8
TNF-α and IL-1β [3] = assay: Serum TNF and IL-1 in Dengue infected mice (Example 4); type: in vivo, BALB/c mice; details: for IL-1 / TNF: 20 mg/kg orally twice per day from day -3 until day 8
Dengue virus, type 2 = tested on: Dengue virus, type 2; design: species or system BALB/c mice; details: mouse, in vivo, po
TNF-α and IL-1β [4] = assay: Serum TNF-α and IL-1β in Dengue infected mice (Example 5); type: in vivo, BALB/c mice; details: 100 μg orally twice per day from day 3 until day 8
IL-1RA and sTNFrl = IL-1RA and sTNFrl in human donor serum after oral antibiotic stimulation; type: in vivo; details: after stimulation, 2 persons, on the 24th hour
Mononuclear human cells = assay: In vitro activation of mononuclear human cells by antibiotics: IL-1RA and sTNFrI production; type: cell-based; details: 0.06 mg/ml, activation for 2 hours
[5] = tested on: mice with the SEB-induced septic shock; design: species or system Balb/c mice; details: mouse, in vivo
[6] = 58 mg/kg i.m. during 17 day period without virus injection
[7] = 7 day period without viral infection

## CN(C)C1C(O)=C(C(N)=O)C(=O)C2(O)C(O)=C3C(=O)c4c(O)cccc4C(C)(O)C3CC12 (stereo not drawn) [Tetracycline, 4-dimethylamino-1,4,4a,5,5a,6-11,12a-octahydro-3,6,10,12,12a-pentahydroxy-6-methyl-1,11-dioxo-2-naphthacenecarboxamide]
[1]
  m.t.d. (mean time to death): 8.75 and 8.06 and 7.91
[2]
  survival: 80%
[2]; 58 mg/kg
  death: 4
Dengue virus type 2; day 0
  Survival/total amount: 20/20
Dengue virus type 2; day 1
  Survival/total amount: 20/20
Dengue virus type 2; day 3
  Survival/total amount: 20/20
Dengue virus type 2; day 5
  Survival/total amount: 16/20
Dengue virus type 2; day 6
  Survival/total amount: 11/20
Dengue virus type 2; day 7
  Survival/total amount: 8/20
Dengue virus type 2; day 12
  Survival/total amount: 8/20
Dengue virus type 2; day -1
  Survival/total amount: 20/20
TNF-α and IL-1β [3]; 20 mg/kg orally twice per day
  increase of the concentration of TNF: 2 fold
TNF-α and IL-1β [3]; 20 mg/kg twice per day from day -3 until day 8
  level of the cytokines in the serum versus control A2 group: statistically lower
TNF-α and IL-1β [3]; by day 5 of the disease, 20 mg/kg orally twice per day
  increase of the concentration of IL-1: 10 fold
TNF-α and IL-1β [3]; day 0
  IL-1: 6.8 pg/mL
TNF-α and IL-1β [3]; day 1
  IL-1: 10.8 pg/mL
TNF-α and IL-1β [3]; day 3
  IL-1: 46.8 pg/mL
  TNF: 14.0 pg/mL
TNF-α and IL-1β [3]; day 5
  IL-1: 66.0 pg/mL
  TNF: 28.8 pg/mL
TNF-α and IL-1β [3]; day 6
  IL-1: 56.8 pg/mL
  TNF: 38.4 pg/mL
TNF-α and IL-1β [3]; day 7
  IL-1: 10.2 pg/mL
  TNF: 33 pg/mL
TNF-α and IL-1β [3]; day 12
  IL-1: 7.4 pg/mL
  TNF: 19.6 pg/mL
TNF-α and IL-1β [3]; day -1
  IL-1: 6.8 pg/mL
  TNF: 18.4 pg/mL
Dengue virus, type 2
  Survived/died: 9/11
  m.t.d. (average lifetime): 8.40 ± 0.73
TNF-α and IL-1β [4]; day 0
  IL-1: 6.0 pg/mL
  TNF: 7.8 pg/mL
TNF-α and IL-1β [4]; day 1
  IL-1: 12.0 pg/mL
  TNF: 13.8 pg/mL
TNF-α and IL-1β [4]; day 3
  IL-1: 36.0 pg/mL
  TNF: 38.2 pg/mL
TNF-α and IL-1β [4]; day 5
  IL-1: 48.6 pg/mL
  TNF: 56.2 pg/mL
TNF-α and IL-1β [4]; day 6
  IL-1: 62.4 pg/mL
  TNF: 156.8 pg/mL
TNF-α and IL-1β [4]; day 12
  IL-1: 15.6 pg/mL
  TNF: 18.0 pg/mL
TNF-α and IL-1β [4]; day 21
  IL-1: 5.8 pg/mL
  TNF: 7.4 pg/mL
IL-1RA and sTNFrl
  IL-1RA in the donor serum: 130 ± 6.8 pg/mL
  sTNFrl in the donor serum: 580 ± 18.2 pg/mL
Mononuclear human cells; 0 hours
  IL-1RA: 22 + 1.4 pg/ml
  sTNFrI: 19 + 1.2 pg/ml
Mononuclear human cells; 3 hours
  IL-1RA: 86 + 4.6 pg/ml
  sTNFrI: 185 + 8.4 pg/ml
Mononuclear human cells; 6 hours
  IL-1RA: 186 + 8.2 pg/ml
  sTNFrI: 204 + 9.2 pg/ml
Mononuclear human cells; 24 hours
  IL-1RA: 140 + 7.6 pg/ml
  sTNFrI: 201 + 8.6 pg/ml
[5]
  mice survived 96 hours postinduction: About 20%
[6]
  toxicity to control groups: not toxic
[6]; of 6 guinea pigs
  survival: 6
[7]
  toxicity to control groups: not toxic
[7]; of 20 mice
  death: 0
  survival: 20
